T1: VEGFR-3/EpoR (Homo sapiens, UniProt P35916)
T1 construct: a chimeric receptor containing the extracellular domain of human VEGFR-1, VEGFR-2 or VEGFR-3 fused with the transmembrane and cytoplasmic domains; expressed in transfected cells; host or cells: murine Ba/F3 pre-B cells, stably transfected
T1 sequence (P35916 25-775 limits assumed): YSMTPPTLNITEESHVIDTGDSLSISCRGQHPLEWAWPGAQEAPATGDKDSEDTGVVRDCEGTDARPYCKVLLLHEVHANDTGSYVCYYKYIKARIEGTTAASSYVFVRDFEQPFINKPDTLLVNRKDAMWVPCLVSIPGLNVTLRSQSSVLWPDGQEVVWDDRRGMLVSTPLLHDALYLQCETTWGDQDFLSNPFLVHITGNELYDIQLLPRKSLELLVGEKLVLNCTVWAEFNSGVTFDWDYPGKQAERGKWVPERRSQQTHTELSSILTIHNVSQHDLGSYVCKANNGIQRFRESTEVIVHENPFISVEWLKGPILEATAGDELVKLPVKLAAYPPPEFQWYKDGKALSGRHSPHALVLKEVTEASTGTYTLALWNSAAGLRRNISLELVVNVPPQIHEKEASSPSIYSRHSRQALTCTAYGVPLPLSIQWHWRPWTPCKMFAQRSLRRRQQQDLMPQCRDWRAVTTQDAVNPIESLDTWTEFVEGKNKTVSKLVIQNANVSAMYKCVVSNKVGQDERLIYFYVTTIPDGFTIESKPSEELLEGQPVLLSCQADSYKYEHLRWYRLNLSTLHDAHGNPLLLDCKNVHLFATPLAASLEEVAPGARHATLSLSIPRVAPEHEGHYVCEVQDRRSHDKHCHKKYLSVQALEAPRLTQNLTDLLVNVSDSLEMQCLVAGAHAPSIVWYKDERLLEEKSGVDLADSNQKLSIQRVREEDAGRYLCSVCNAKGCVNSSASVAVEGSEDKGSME


Legend:
[1] = target: T2, VEGFR-1/EpoR (Homo sapiens, UniProt P17948); assay: Ba/F3 bioassay, viability (MTT) of VEGFR-1/EpoR cells; format: cell-based; conditions: FIG. 1A
T2 construct: a chimeric receptor containing the extracellular domain of human VEGFR-1, VEGFR-2 or VEGFR-3 fused with the transmembrane and cytoplasmic domains; expressed in transfected cells
T2 sequence (P17948 27-758 limits assumed): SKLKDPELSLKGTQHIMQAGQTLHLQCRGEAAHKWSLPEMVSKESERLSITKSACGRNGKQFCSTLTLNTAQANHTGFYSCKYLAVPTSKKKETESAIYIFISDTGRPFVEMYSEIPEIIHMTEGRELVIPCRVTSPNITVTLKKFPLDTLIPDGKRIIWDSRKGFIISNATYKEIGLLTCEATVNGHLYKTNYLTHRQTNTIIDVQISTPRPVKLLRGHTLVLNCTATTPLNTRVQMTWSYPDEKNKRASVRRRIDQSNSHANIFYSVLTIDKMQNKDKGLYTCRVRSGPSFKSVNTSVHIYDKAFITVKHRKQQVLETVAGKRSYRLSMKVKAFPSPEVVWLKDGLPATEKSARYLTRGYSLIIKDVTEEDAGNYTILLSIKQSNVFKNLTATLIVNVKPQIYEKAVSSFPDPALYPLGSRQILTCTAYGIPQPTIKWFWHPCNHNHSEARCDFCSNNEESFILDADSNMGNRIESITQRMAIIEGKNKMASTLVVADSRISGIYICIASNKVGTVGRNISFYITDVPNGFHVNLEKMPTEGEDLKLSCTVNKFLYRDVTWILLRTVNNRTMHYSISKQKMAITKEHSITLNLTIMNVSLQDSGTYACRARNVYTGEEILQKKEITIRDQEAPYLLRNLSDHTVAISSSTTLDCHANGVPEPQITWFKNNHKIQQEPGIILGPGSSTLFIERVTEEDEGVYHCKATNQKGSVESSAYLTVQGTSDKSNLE
Method: (§1) FIG. 1A-FIG. 1C. Analysis of the receptor-specificities of different VEGFs using the Ba/F3 bioassay. Measurement of the viability of Ba/F3 cells expressing the chimeric receptors VEGFR-1/EpoR (FIG. 1A), VEGFR-2/EpoR (FIG. 1B) or VEGFR-3/EpoR (FIG. 1C) in the presence of different VEGFs at indicated concentrations. Cell viability was determined using the MTT assay. Data represent the mean values from triplicate assays (mean±s.d.). FIG. 1D-FIG. 1G. Biosensor analysis of the interaction of VEGF-C (FIG. 1D, FIG. 1E) and VEGF-C156S (FIG. 1F, FIG. 1G) with VEGFR-3 (FIG. 1D, FIG. 1F) and VEGFR-2 (FIG. 1E, FIG. 1G). Chimeric receptor proteins were immobilized onto a carboxymethylated dextran surface. Growth factors were injected over the surface at a flow rate of 20 μl/min at the indicated concentrations. The sensorgrams shown have been subtracted with the corresponding signal obtained when the same sample was passed over a blank control channel.
(§2) Bioassay for VEGFR stimulation. […]
(§3) VEGF is an endothelial cell mitogen which has been also shown to protect endothelial cells from starvation and TNF-a induced apoptosis via activation of VEGFR-2 (Gerber et al, J. Biol. Chem., 273:30336-30343, 1998; Spyridopoulos et al., J. Mol. Cell. Cardiol., 29:1321-1330, 1997). […] The specificities of the growth factors used were determined using a cell survival bioassay. […]

[2] = test system: VEGFR-3 expressing lymphatic endothelial cells; assay: Culture and proliferation (PCNA) of isolated VEGFR-3 positive lymphatic endothelial cells; format: cell-based, human; conditions: complete medium with 5% serum supplemented with VEGF 10 ng/ml or VEGF-C 100 ng/ml
Method: In order to compare the effects of the VEGFs on the survival of lymphatic versus blood vascular endothelial cells, specific antibodies and magnetic microbeads were used to isolate and to culture the VEGFR-3 positive and negative cells. Briefly, in this protocol, three separate sets of VEGFR-3 expressing lymphatic endothelial cells were cultured: a first set was cultured in complete medium containing 5% serum, the second set was cultured in complete medium containing 5% serum and supplemented with VEGF (10 ng/ml,) and the third set was cultured in complete medium containing 5% serum supplemented with VEGF-C (100 ng/ml). The VEGFR-3 positive cells were grown for five days after sorting in serum or supplemented with VEGFC and then stained for podoplanin and proliferating cell nuclear antigen (PCNA). The nuclei were stained with the Hoechst fluorochrome. If supplemented with VEGF-C or VEGF, the cells were stained for PCNA. Immunofluorescence double-staining of non-sorted cells or VEGFR-3 negative and VEGFR-3 positive cell populations with antibodies against podoplanin or VEGFR-3 also was performed.

[3] = target: T1, VEGFR-3/EpoR; assay: Ba/F3 bioassay, viability (MTT) of VEGFR-3/EpoR cells; format: cell-based
Method: as §1, §2, §3

Molecule | survival of VEGFR-1/EpoR cells [1] | proliferation of isolated podoplanin positive cells [2] | concentration which gave maximal viability in VEGFR-3/EpoR cell survival assays ([3]; Ba/F3 VEGFR-3/EpoR cells) [ng/mL] | survival of VEGFR-3/EpoR expressing cells ([3]; Ba/F3 cells, FIG. 1C)
VEGF | able to induce the survival of VEGFR-1/EpoR cells | most of the podoplanin positive cells proliferated readily |  | 
VEGF-C156S: VEGFR-3 specific mutant form of VEGF-C, cysteine 156 changed into serine; recombinant human (Thr103 to Ile225) (protein, UniProt P49767 103-225, looked up, variant C156S) TEETIKFAAAHYNTEILKSIDNEWRKTQCMPREVCIDVGKEFGVATNTFFKPPSVSVYRCGGCCNSEGLQCMNTSTSYLSKTLFEITVPLSQGPKPVTISFANHTSCRCMSKLDVYRQVHSII |  |  | 500 | VEGFR-3/EpoR expressing cells survived
